The record followed here is patent publication US12043632B2, “6-heteroaryloxy benzimidazoles and azabenzimidazoles as JAK2 inhibitors” (Ajax Therapeutics, Inc., priority 2020, dated 2024).

The target in the experiment is T1, JAK2 (JH1domain-catalytic, Y1007F,Y1008F) kinase (Homo sapiens, UniProt O60674, Y1007F/Y1008F).
T1 construct: JAK2 (JH1domain-catalytic, Y1007F,Y1008F) kinase was expressed as N-terminal fusion; made in house; host or cells: transiently transfected HEK293 cells
As to the kind of experiment: JAK2 JH1 Domain Binding Assay. As to conditions: qPCR readout.

T1 sequence (O60674 849-1124 Y1007F/Y1008F limits assumed): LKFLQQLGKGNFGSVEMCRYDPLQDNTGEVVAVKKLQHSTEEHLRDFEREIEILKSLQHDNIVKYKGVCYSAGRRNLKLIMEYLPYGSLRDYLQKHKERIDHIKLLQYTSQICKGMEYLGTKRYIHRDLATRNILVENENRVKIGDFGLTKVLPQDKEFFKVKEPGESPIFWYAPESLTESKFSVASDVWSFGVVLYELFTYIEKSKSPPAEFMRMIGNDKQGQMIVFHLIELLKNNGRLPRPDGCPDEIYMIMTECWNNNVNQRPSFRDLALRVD

Regarding `CN1CCN(c2cc(Nc3nc4ncc(Oc5cnn6ccncc56)c(Cl)c4n3C)cc(C(F)(F)F)c2)CC1` [Example I-172, 7-chloro-1-methyl-N-(3-(4-methylpiperazin-1-yl)-5-(trifluoromethyl)phenyl)-6-(pyrazolo[1,5-a]pyrazin-3-yloxy)-1H-imidazo[4,5-b]pyridin-2-amine], the Kd is under 10 nM. For the compound `Cn1c(Nc2cc(C(C)(C)C)n(C3COC3)n2)nc2ncc(Oc3cnn4ccncc34)c(Cl)c21` [Example I-86, N-(5-(tert-butyl)-1-(oxetan-3-yl)-1H-pyrazol-3-yl)-7-chloro-1-methyl-6-(pyrazolo[1,5-a]pyrazin-3-yloxy)-1H-imidazo[4,5-b]pyridin-2-amine], the Kd was under 10 nM. For `CNc1nccn2ncc(Oc3cnc4nc(Nc5cc(C(F)(F)C(F)(F)F)cn(C)c5=O)n(C)c4c3Cl)c12` [Example I-201, 3-((7-chloro-1-methyl-6-((4-(methylamino)pyrazolo[1,5-a]pyrazin-3-yl)oxy)-1H-imidazo[4,5-b]pyridin-2-yl)amino)-1-methyl-5-(perfluoroethyl)pyridin-2(1H)-one] the value was under 10 nM; for `CN1CC[C@H](n2nc(Nc3nc4ncc(Oc5cnn6cc(F)ccc56)c(Cl)c4n3C)cc2C(C)(C)C)C1` [Example I-169, (S)—N-(5-(tert-butyl)-1-(1-methylpyrrolidin-3-yl)-1H-pyrazol-3-yl)-7-chloro-6-((6-fluoropyrazolo[1,5-a]pyridin-3-yl)oxy)-1-methyl-1H-imidazo[4,5-b]pyridin-2-amine], under 10 nM. For `CNc1cn2ncc(Oc3cnc4nc(Nc5cc(C6CCN(C)CC6)cc(C(F)(F)F)c5)n(C)c4c3Cl)c2cn1` [Example I-353, 7-chloro-1-methyl-6-((6-(methylamino)pyrazolo[1,5-a]pyrazin-3-yl)oxy)-N-(3-(1-methylpiperidin-4-yl)-5-(trifluoromethyl)phenyl)-1H-imidazo[4,5-b]pyridin-2-amine] the value was under 10 nM. For `Cc1c(Oc2cnc3nc(Nc4cc(C(F)(F)F)cn(C)c4=O)n(C)c3c2C#N)cnc2[nH]ccc12` [Example I-334, 1-methyl-6-((4-methyl-1H-pyrrolo[2,3-b]pyridin-5-yl)oxy)-2-((1-methyl-2-oxo-5-(trifluoromethyl)-1,2-dihydropyridin-3-yl)amino)-1H-imidazo[4,5-b]pyridine-7-carbonitrile] the value was 10 to 50 nM; for `CNc1nccn2ncc(Oc3cnc4nc(Nc5cc(C(F)(F)F)n([C@@H]6COC[C@H]6O)n5)n(C)c4c3Cl)c12` (single isomer, unassigned) [Example I-279-b], under 10 nM; for `Cn1c(Nc2cc(C3CC3)cn([C@H]3CC[C@@H]3O)c2=O)nc2ncc(Oc3cnn4ccncc34)c(Cl)c21` (single isomer, unassigned) [Example I-95-a], under 10 nM. For `COC1CN(Cc2cc(Nc3nc4ncc(Oc5cnn6ccncc56)c(Cl)c4n3C)cc(C(F)(F)F)c2)C1` [Example I-196, 7-chloro-N-(3-((3-methoxyazetidin-1-yl)methyl)-5-(trifluoromethyl)phenyl)-1-methyl-6-(pyrazolo[1,5-a]pyrazin-3-yloxy)-1H-imidazo[4,5-b]pyridin-2-amine], the Kd was under 10 nM. Compound `Cn1cc(-n2cc(C3CC3)cc(Nc3nc4ncc(Oc5cnn6ccccc56)c(Cl)c4n3C)c2=O)cn1` [Example I-115, 3-((7-chloro-1-methyl-6-(pyrazolo[1,5-a]pyridin-3-yloxy)-1H-imidazo[4,5-b]pyridin-2-yl)amino)-5-cyclopropyl-1-(1-methyl-1H-pyrazol-4-yl)pyridin-2(1H)-one] showed a Kd of under 10 nM.

The compound `Cn1c(Nc2nn3c(c2F)COC(C)(C)C3)nc2ncc(Oc3cnn4ccncc34)c(Cl)c21` [Example I-232, N-(7-chloro-1-methyl-6-(pyrazolo[1,5-a]pyrazin-3-yloxy)-1H-imidazo[4,5-b]pyridin-2-yl)-3-fluoro-6,6-dimethyl-6,7-dihydro-4H-pyrazolo[5,1-c][1,4]oxazin-2-amine] gave a Kd of under 10 nM. For `COC1CCN(Cc2cc(Nc3nc4ncc(Oc5cnn6ccncc56)c(Cl)c4n3C)cc(C(F)(F)F)c2)CC1` [Example I-198, 7-chloro-N-(3-((4-methoxypiperidin-1-yl)methyl)-5-(trifluoromethyl)phenyl)-1-methyl-6-(pyrazolo[1,5-a]pyrazin-3-yloxy)-1H-imidazo[4,5-b]pyridin-2-amine] the value was under 10 nM; for `CN1CCCC1c1ccc(Nc2nc3ncc(Oc4cnn5ccncc45)c(Cl)c3n2C)cc1C(F)(F)F` (single isomer, unassigned) [Example I-343], under 10 nM. For `Cn1c(Nc2cc(C(F)(F)F)cn(CCCN3CCOCC3)c2=O)nc2ncc(Oc3cnn4ccncc34)c(Cl)c21` [Example I-91, 3-((7-chloro-1-methyl-6-(pyrazolo[1,5-a]pyrazin-3-yloxy)-1H-imidazo[4,5-b]pyridin-2-yl)amino)-1-(3-morpholinopropyl)-5-(trifluoromethyl)pyridin-2(1H)-one] the value was under 10 nM; for `CN1CCC[C@@H]1c1cc(Nc2nc3ncc(Oc4cnn5ccncc45)c(Cl)c3n2C)cc(C(F)(F)F)c1` (single isomer, unassigned) [Example I-270-a], under 10 nM. In the case of `CNc1nccn2ncc(Oc3cnc4nc(Nc5cc(OC[C@@H]6CCCN6C)cc(C(F)(F)F)c5)n(C)c4c3Cl)c12` [Example I-241, (S)-7-chloro-1-methyl-6-((4-(methylamino)pyrazolo[1,5-a]pyrazin-3-yl)oxy)-N-(3-((1-methylpyrrolidin-2-yl)methoxy)-5-(trifluoromethyl)phenyl)-1H-imidazo[4,5-b]pyridin-2-amine], the Kd was under 10 nM. For `COc1c(Oc2cnn3ccccc23)cnc2nc(Nc3cc(C4CC4)cn(CCCN4CCC(F)(F)C4)c3=O)n(C)c12` [Example I-123, 5-cyclopropyl-1-(3-(3,3-difluoropyrrolidin-1-yl)propyl)-3-((7-methoxy-1-methyl-6-(pyrazolo[1,5-a]pyridin-3-yloxy)-1H-imidazo[4,5-b]pyridin-2-yl)amino)pyridin-2(1H)-one] the value was 10 to 50 nM. For `Cn1cc(C(F)(F)F)cc(Nc2nc3ncc(Oc4cnn5ccccc45)c(C#N)c3n2C)c1=O` [Example I-212, 1-methyl-2-((1-methyl-2-oxo-5-(trifluoromethyl)-1,2-dihydropyridin-3-yl)amino)-6-(pyrazolo[1,5-a]pyridin-3-yloxy)-1H-imidazo[4,5-b]pyridine-7-carbonitrile] the value was under 10 nM; for `CNc1cn2ncc(Oc3cnc4nc(Nc5cc(-n6cnc(C)c6)cc(C(F)(F)F)c5)n(C)c4c3Cl)c2cn1` [Example I-339, 7-chloro-1-methyl-N-(3-(4-methyl-1H-imidazol-1-yl)-5-(trifluoromethyl)phenyl)-6-((6-(methylamino)pyrazolo[1,5-a]pyrazin-3-yl)oxy)-1H-imidazo[4,5-b]pyridin-2-amine], under 10 nM. To `Cn1c(Nc2cc(C(C)(C)C)n([C@@H]3CCN(CCF)C3)n2)nc2ncc(Oc3cnn4ccncc34)c(Cl)c21` [Example I-30, (R)—N-(5-(tert-butyl)-1-(1-(2-fluoroethyl)pyrrolidin-3-yl)-1H-pyrazol-3-yl)-7-chloro-1-methyl-6-(pyrazolo[1,5-a]pyrazin-3-yloxy)-1H-imidazo[4,5-b]pyridin-2-amine] belongs under 10 nM; to `CNc1nccn2ncc(Oc3cnc4nc(Nc5cc(C(F)(F)F)cn(C6CC6)c5=O)n(C)c4c3Cl)c12` [Example I-178, 3-((7-chloro-1-methyl-6-((4-(methylamino)pyrazolo[1,5-a]pyrazin-3-yl)oxy)-1H-imidazo[4,5-b]pyridin-2-yl)amino)-1-cyclopropyl-5-(trifluoromethyl)pyridin-2(1H)-one], under 10 nM; to `CNc1nccn2ncc(Oc3cnc4nc(Nc5cc(O[C@H]6CCN(C)C6)cc(C(F)(F)F)c5)n(C)c4c3Cl)c12` [Example I-228, (S)-7-chloro-1-methyl-6-((4-(methylamino)pyrazolo[1,5-a]pyrazin-3-yl)oxy)-N-(3-((1-methylpyrrolidin-3-yl)oxy)-5-(trifluoromethyl)phenyl)-1H-imidazo[4,5-b]pyridin-2-amine], 10 to 50 nM. `CNc1nccn2ncc(Oc3cnc4nc(Nc5ccc(CN6CCC(F)(F)C6)c(C(F)(F)F)c5)n(C)c4c3Cl)c12` [Example I-184]: the dissociation constant Kd was 50 to 1000 nM. To `CN1CC[C@H](n2nc(Nc3nc4ncc(Oc5cnn6ccncc56)c(Cl)c4n3C)cc2C(C)(C)C)C1` [Example I-31, (S)—N-(5-(tert-butyl)-1-(1-methylpyrrolidin-3-yl)-1H-pyrazol-3-yl)-7-chloro-1-methyl-6-(pyrazolo[1,5-a]pyrazin-3-yloxy)-1H-imidazo[4,5-b]pyridin-2-amine] belongs under 10 nM; to `COc1c(Oc2cnn3ccncc23)cnc2nc(Nc3cc(C4CC4)cn(C)c3=O)n(C)c12` [Example I-64, 5-cyclopropyl-3-((7-methoxy-1-methyl-6-(pyrazolo[1,5-a]pyrazin-3-yloxy)-1H-imidazo[4,5-b]pyridin-2-yl)amino)-1-methylpyridin-2(1H)-one], under 10 nM; to `Cn1cc(C(F)(F)F)cc(Nc2nc3ncc(Oc4cnc5[nH]ccc5c4F)c(C#N)c3n2C)c1=O` [Example I-335, 6-((4-fluoro-1H-pyrrolo[2,3-b]pyridin-5-yl)oxy)-1-methyl-2-((1-methyl-2-oxo-5-(trifluoromethyl)-1,2-dihydropyridin-3-yl)amino)-1H-imidazo[4,5-b]pyridine-7-carbonitrile], under 10 nM. With `Cn1c(Nc2cc(C(F)(F)F)cn(CCCN3CCOCC3)c2=O)nc2ncc(Oc3cnn4ccccc34)c(C#N)c21` [Example I-159, 1-methyl-2-((1-(3-morpholinopropyl)-2-oxo-5-(trifluoromethyl)-1,2-dihydropyridin-3-yl)amino)-6-(pyrazolo[1,5-a]pyridin-3-yloxy)-1H-imidazo[4,5-b]pyridine-7-carbonitrile], the Kd is under 10 nM. To `Cn1c(Nc2cc(C3CC3)cn([C@@H]3CC[C@H]3O)c2=O)nc2ncc(Oc3cnn4ccccc34)c(Cl)c21` (single isomer, unassigned) [Example I-99-b] belongs under 10 nM.
